# Laboratory results as given in ChEMBL document CHEMBL1255477, “In vitro properties of BAL30072, a novel siderophore sulfactam with activity against multiresistant gram-negative bacilli” (Antimicrob Agents Chemother, 2010).
# Active and inactive are the calls of the source. The rule behind the calls is not given here.
# Columns and labels:
# [1] = system: Escherichia coli; test: Antimicrobial activity against Escherichia coli nmcA harboring beta-lactamase NMCA by broth dilution method; type: functional
# [2] = system: Pseudomonas aeruginosa; test: Antimicrobial activity against Pseudomonas aeruginosa HPA996 harboring beta-lactamase VIM-2 by broth dilution method; type: functional
# [3] = system: Acinetobacter junii; test: Antimicrobial activity against Acinetobacter junii 15218 assessed as number of passages required for MIC to rise above 4 times original MIC; type: functional
# [4] = system: Pseudomonas aeruginosa; test: Antimicrobial activity against Pseudomonas aeruginosa 527 assessed as number of passages required for MIC to rise above 4 times original MIC; type: functional
# [5] = system: Providencia stuartii; test: Antimicrobial activity against Providencia stuartii by broth dilution method; type: functional
# [6] = system: Acinetobacter baumannii; test: Antimicrobial activity against Acinetobacter baumannii HPA74510 harboring beta-lactamase IMP-4 by broth dilution method; type: functional
# [7] = system: Citrobacter freundii; test: Antimicrobial activity against Citrobacter freundii by broth dilution method; type: functional
# [8] = system: Pseudomonas aeruginosa; test: Antimicrobial activity against mexAB-oprM protein and mexCD-oprJ deficient Pseudomonas aeruginosa PAO253 overexpressing MexEF-OprN gene by broth dilution method; type: functional
# [9] = system: Klebsiella pneumoniae; test: Antimicrobial activity against Klebsiella pneumoniae by broth dilution method; type: functional
# [10] = system: Pseudomonas aeruginosa; test: Antimicrobial activity against pfeA deficient Pseudomonas aeruginosa 134 by broth dilution method; type: functional
# [11] = system: Escherichia coli; test: Antimicrobial activity against Escherichia coli HB101 harboring beta-lactamase TEM-5 by broth dilution method; type: functional
# [12] = system: Stenotrophomonas maltophilia; test: Antimicrobial activity against Stenotrophomonas maltophilia by broth dilution method; type: functional
# [13] = system: Proteus mirabilis; test: Antimicrobial activity against Proteus mirabilis by broth dilution method; type: functional
# [14] = system: Escherichia coli; test: Antimicrobial activity against Escherichia coli Libyien harboring beta-lactamase CMY-2 by broth dilution method; type: functional
# [15] = system: Enterobacter cloacae; test: Antimicrobial activity against Enterobacter cloacae by broth dilution method; type: functional
# [16] = system: Pseudomonas aeruginosa; test: Antimicrobial activity against Pseudomonas aeruginosa HPA101-1477 harboring beta-lactamase IMP-1 by broth dilution method; type: functional
# [17] = system: Klebsiella aerogenes; test: Antimicrobial activity against Enterobacter aerogenes by broth dilution method; type: functional
# [18] = system: Enterobacter cloacae; test: Antimicrobial activity against Enterobacter cloacae S4741B assessed as appearance of colony at 4 times MIC concentration; type: functional
# [19] = system: Proteus penneri; test: Antimicrobial activity against Proteus penneri by broth dilution method; type: functional
# [20] = system: Escherichia coli; test: Antimicrobial activity against Escherichia coli K802N harboring beta-lactamase TEM-3 by broth dilution method; type: functional
# [21] = system: Acinetobacter junii; test: Antimicrobial activity against Acinetobacter junii 15218 assessed as appearance of colony at 4 times MIC concentration; type: functional
# [22] = system: Klebsiella oxytoca; test: Antimicrobial activity against Klebsiella oxytoca 1028E harboring beta-lactamase K1 by broth dilution method; type: functional
# [23] = system: Stenotrophomonas maltophilia; test: Antimicrobial activity against Stenotrophomonas maltophilia B715 harboring beta-lactamase L1and L2 by broth dilution method; type: functional
# [24] = system: Klebsiella pneumoniae; test: Antimicrobial activity against Klebsiella pneumoniae 1357E harboring beta-lactamase TEM-10 by broth dilution method; type: functional
# [25] = system: Klebsiella pneumoniae; test: Antimicrobial activity against Klebsiella pneumoniae CRE harboring beta-lactamase KPC-2 by broth dilution method; type: functional
# [26] = system: Pseudomonas aeruginosa; test: Antimicrobial activity against Pseudomonas aeruginosa HPA10586 harboring beta-lactamase VIM-1 by broth dilution method; type: functional
# [27] = system: Pseudomonas aeruginosa; test: microbe, parasite or virus in culture; settings: 18S/H
# Description: Antimicrobial activity against Pseudomonas aeruginosa 18S/H harboring beta-lactamase Class C by broth dilution method
# [28] = system: Klebsiella pneumoniae; test: Antimicrobial activity against Klebsiella pneumoniae YC harboring beta-lactamase KPC-2,TEM-1and SHV-2 by broth dilution method; type: functional
# [29] = system: Pseudomonas aeruginosa; test: microbe, parasite or virus in culture; settings: BA
# Description: Antimicrobial activity against Pseudomonas aeruginosa BA harboring beta-lactamase Class C by broth dilution method
# [30] = system: Pseudomonas aeruginosa; test: Antimicrobial activity against mexAB-oprM, mexCD-oprJ, mexEF-oprN, mexJK, mexXY, opmH and pscC gene deficient Pseudomonas aeruginosa PAO750 by broth dilution method; type: functional
# [31] = system: Providencia rettgeri; test: Antimicrobial activity against Providencia rettgeri J96 harboring beta-lactamase IMP-1 by broth dilution method; type: functional
# [32] = system: Escherichia coli; test: Antimicrobial activity against Escherichia coli by broth dilution method; type: functional
# [33] = system: Pseudomonas aeruginosa; test: Antimicrobial activity against Pseudomonas aeruginosa BA assessed as number of passages required for MIC to rise above 4 times original MIC; type: functional
# [34] = system: Pseudomonas aeruginosa; test: Antimicrobial activity against Pseudomonas aeruginosa BA(C2-107) selected after 25 ug/ml of compound exposure by broth dilution method; type: functional
# [35] = system: Pseudomonas aeruginosa; test: Antimicrobial activity against Pseudomonas aeruginosa 860 assessed as appearance of colony at 4 times MIC concentration; type: functional
# [36] = system: Pseudomonas aeruginosa; test: Antimicrobial activity against Pseudomonas aeruginosa BA by broth dilution method; type: functional
# [37] = system: Providencia rettgeri; test: Antimicrobial activity against Providencia rettgeri by broth dilution method; type: functional
# [38] = system: Klebsiella pneumoniae; test: Antimicrobial activity against Klebsiella pneumoniae 1338665 assessed as number of passages required for MIC to rise above 4 times original MIC; type: functional
# [39] = system: Pseudomonas aeruginosa; test: Antimicrobial activity against Pseudomonas aeruginosa BA assessed as appearance of colony at 4 times MIC concentration; type: functional
# [40] = system: Enterobacter cloacae; test: Microbicidal activity against Enterobacter cloacae S4741B selected after 4 times MIC compound exposure; type: functional
# [41] = system: Klebsiella pneumoniae; test: Antimicrobial activity against Klebsiella pneumoniae 26768WU harboring beta-lactamase SHV-5 by broth dilution method; type: functional
# [42] = system: Pseudomonas aeruginosa; test: Antimicrobial activity against fpvA deficient Pseudomonas aeruginosa (560546)9 M.P. by broth dilution method; type: functional
# [43] = system: Enterobacter cloacae; test: Antimicrobial activity against Enterobacter cloacae S9369 assessed as appearance of colony at 4 times MIC concentration; type: functional, organism-based
# [44] = system: Serratia marcescens; test: Antimicrobial activity against Serratia marcescens 1T9 harboring beta-lactamase Class C by broth dilution method; type: functional
# [45] = system: Enterobacter cloacae; test: Antimicrobial activity against Enterobacter cloacae 908R harboring beta-lactamase AmpC by broth dilution method; type: functional
# [46] = system: Serratia marcescens; test: Antimicrobial activity against Serratia marcescens S6 harboring beta-lactamase SME-1.AmpC by broth dilution method; type: functional
# [47] = system: Pseudomonas aeruginosa; test: Antimicrobial activity against Pseudomonas aeruginosa 621 assessed as number of passages required for MIC to rise above 4 times original MIC; type: functional
# [48] = system: Enterobacter cloacae; test: Antimicrobial activity against Enterobacter cloacae S9369 assessed as number of passages required for MIC to rise above 4 times original MIC; type: functional
# [49] = system: Pseudomonas aeruginosa; test: Antimicrobial activity against Pseudomonas aeruginosa by broth dilution method; type: functional
# [50] = system: Proteus vulgaris; test: Antimicrobial activity against Proteus vulgaris by broth dilution method; type: functional
# [51] = system: Klebsiella pneumoniae; test: Antimicrobial activity against Klebsiella pneumoniae 1338665 assessed as appearance of colony at 4 times MIC concentration; type: functional, organism-based
# [52] = system: Escherichia coli; test: Antimicrobial activity against Escherichia coli CF102 harboring beta-lactamase TEM-3 by broth dilution method; type: functional
# [53] = Pseudomonas aeruginosa, BA, read-out: MIC
smiles,measurement,setting,value
C[C@@H](O)[C@H]1C(=O)N2C(C(=O)O)=C(S[C@@H]3CN[C@H](C(=O)N(C)C)C3)[C@H](C)[C@H]12 [MEROPENEM],MIC,[1],> 32 µg/mL
same,MIC,[2],32 µg/mL
same,Activity,[3],9 passages
same,Activity,[4],3 passages
same,MIC50,[5],0.25 µg/mL
same,MIC90,[5],> 32 µg/mL
same,MIC,[6],32 µg/mL
same,MIC,[7],≤ 0.06 µg/mL
same,MIC50,[7],≤ 0.06 µg/mL
same,MIC90,[7],0.25 µg/mL
same,MIC,[8],0.5 µg/mL
same,MIC50,[9],≤ 0.06 µg/mL
same,MIC90,[9],16 µg/mL
same,MIC,[10],1 µg/mL
same,MIC,[11],≤ 0.06 µg/mL
same,MIC50,[12],8 µg/mL
same,MIC90,[12],> 32 µg/mL
same,MIC50,[13],0.125 µg/mL
same,MIC90,[13],0.5 µg/mL
same,MIC,[14],0.125 µg/mL
same,MIC,[15],≤ 0.06 µg/mL
same,MIC50,[15],≤ 0.06 µg/mL
same,MIC90,[15],0.25 µg/mL
same,MIC,[16],> 32 µg/mL
same,MIC50,[17],0.25 µg/mL
same,MIC90,[17],4 µg/mL
same,Activity,[18],Active
same,MIC50,[19],0.125 µg/mL
same,MIC90,[19],0.5 µg/mL
same,MIC,[20],16 µg/mL
same,Activity,[21],Active
same,MIC,[22],0.125 µg/mL
same,MIC,[23],> 32 µg/mL
same,MIC,[24],≤ 0.06 µg/mL
same,MIC,[25],> 32 µg/mL
same,MIC,[26],> 32 µg/mL
same,MIC,[27],2 µg/mL
same,MIC,[28],> 32 µg/mL
same,MIC,[29],1 µg/mL
same,MIC,[30],0.5 µg/mL
same,MIC,[31],> 32 µg/mL
same,MIC50,[32],≤ 0.06 µg/mL
same,MIC90,[32],0.5 µg/mL
same,Activity,[33],3 passages
same,MIC,[34],2 µg/mL
same,Activity,[35],1 frequency
same,MIC,[36],1 µg/mL
same,MIC,[36]; [53],1 µg/mL
same,MIC50,[37],0.25 µg/mL
same,MIC90,[37],> 32 µg/mL
same,Activity,[38],inactive
same,Activity,[39],1 frequency
same,MBC,[40],0.25 µg/mL
same,MIC,[41],≤ 0.06 µg/mL
same,MIC,[42],2 µg/mL
same,Activity,[43],Active
same,MIC,[44],0.125 µg/mL
same,MIC,[45],0.125 µg/mL
same,MIC,[46],32 µg/mL
same,Activity,[47],2 passages
same,Activity,[48],9 passages
same,MIC50,[49],4 µg/mL
same,MIC90,[49],> 32 µg/mL
same,MIC50,[50],0.125 µg/mL
same,MIC90,[50],0.5 µg/mL
same,Activity,[51],inactive
same,MIC,[52],≤ 0.06 µg/mL
CC1(C)[C@H](NC(=O)/C(=N\OCc2cc(=O)c(O)cn2O)c2csc(N)n2)C(=O)N1OS(=O)(=O)O (stereo in doubt),MIC,[1],1 µg/mL
same,MIC,[2],1 µg/mL
same,Activity,[3],20 passages
same,Activity,[4],9 passages
same,MIC,[5],≤ 0.06 µg/mL
same,MIC50,[5],≤ 0.06 µg/mL
same,MIC90,[5],≤ 0.06 µg/mL
same,MIC,[6],0.25 µg/mL
same,MIC50,[7],4 µg/mL
same,MIC90,[7],16 µg/mL
same,MIC,[8],0.5 µg/mL
same,MIC50,[9],16 µg/mL
same,MIC90,[9],> 32 µg/mL
same,MIC,[10],1 µg/mL
same,MIC,[11],32 µg/mL
same,MIC50,[12],0.5 µg/mL
same,MIC90,[12],2 µg/mL
same,MIC,[13],≤ 0.06 µg/mL
same,MIC50,[13],≤ 0.06 µg/mL
same,MIC90,[13],0.25 µg/mL
same,MIC,[14],4 µg/mL
same,MIC50,[15],4 µg/mL
same,MIC90,[15],> 32 µg/mL
same,MIC,[16],2 µg/mL
same,MIC50,[17],0.5 µg/mL
same,MIC90,[17],16 µg/mL
same,Activity,[18],7 frequency
same,MIC,[19],≤ 0.06 µg/mL
same,MIC50,[19],≤ 0.06 µg/mL
same,MIC90,[19],0.25 µg/mL
same,MIC,[20],> 32 µg/mL
same,Activity,[21],Active
same,MIC,[22],0.5 µg/mL
same,MIC,[23],0.25 µg/mL
same,MIC,[24],4 µg/mL
same,MIC,[25],≤ 0.06 µg/mL
same,MIC,[26],2 µg/mL
same,MIC,[27],2 µg/mL
same,MIC,[28],> 32 µg/mL
same,MIC,[29],0.5 µg/mL
same,MIC,[30],≤ 0.06 µg/mL
same,MIC,[31],0.125 µg/mL
same,MIC50,[32],1 µg/mL
same,MIC90,[32],> 32 µg/mL
same,Activity,[33],5 passages
same,MIC,[34],8 µg/mL
same,Activity,[35],7 frequency
same,MIC,[36]; [53],1 µg/mL
same,MIC,[37],≤ 0.06 µg/mL
same,MIC50,[37],≤ 0.06 µg/mL
same,MIC90,[37],≤ 0.06 µg/mL
same,Activity,[38],9 passages
same,Activity,[39],Active
same,Activity,[39]; record 2,2.1 frequency
same,MBC,[40],4 µg/mL
same,MIC,[41],> 32 µg/mL
same,MIC,[42],1 µg/mL
same,Activity,[43],Active
same,MIC,[44],1 µg/mL
same,MIC,[45],4 µg/mL
same,MIC,[46],≤ 0.06 µg/mL
same,Activity,[47],5 passages
same,Activity,[48],8 passages
same,MIC50,[49],2 µg/mL
same,MIC90,[49],8 µg/mL
same,MIC,[50],≤ 0.06 µg/mL
same,MIC50,[50],≤ 0.06 µg/mL
same,MIC90,[50],0.25 µg/mL
same,Activity,[51],Active
same,MIC,[52],4 µg/mL
